Reference: US12202845

Details: from CCn1c(-c2cccnc2[C@H](C)OC)c(CC(C)(C)CO)c2cc(C3=CCCN(CC(NC(=O)OC(C)(C)C)C(=O)N4CCC[C@@H](C(=O)O)N4)C3)ccc21; ester bond; 18-membered ring; EDCI.HCl/HOBt/DIPEA; DCM; 7.1 mM; 30.0 °C; 16.0 h

## CCn1c(-c2cccnc2[C@H](C)OC)c2c3cc(ccc31)C1=CCCN(C1)CC(NC(=O)OC(C)(C)C)C(=O)N1CCC[C@H](N1)C(=O)OCC(C)(C)C2 (stereo partly shown)
  ring closure, isolated yield: 40%
